Reference: US20150320762A1, “TREATMENT OF PROLIFERATIVE DISEASES WITH PYRIMIDODIAZEPINONES” (Cyclacel limited, priority 2012, published 2015)
Where two headings read alike, the source gives them in different places.

Tests used:
[1] = Mouse PK data for selected compounds of the invention; assay type: in vivo; conditions: dose 1 mg/kg; for AUC / Cmax: plasma
Experimental: The plasma concentration is measured using standard LC-MS/MS analysis based on the following method. Calibration and control samples are prepared as follows from a 500 μg/mL solution of compound in methanol/DMSA 50/50 v/v. This stock solution is used to prepare diluted working standards of the test items with concentrations from 200 ng/ml to 500,000 ng/ml. The solutions are diluted with methanol and stored at +4° C. in glass vials when not in use. The working solutions are used to prepare calibration standards in control plasma, with a final concentration of between 10 ng/ml and 5000 ng/ml per 100 microlitres of plasma. These standards are prepared on day one of analysis and re-prepared as necessary on each analytical occasion. Internal standards are dissolved in methanol/DMSA 50/50 v/v and diluted to 1 μg/mL in acetonitrile for a working solution.
Plasma samples are extracted by the following method. Transfer 50 microlitres of each calibration, quality control and test sample to a 96-well mictrotitre plate. Add 200 microlitres of a 1 microgram per millilitre internal standard solution in acetonitrile to all samples except for a double blank. 200 microlitres of acetonitrile is added to the double blank. Samples are briefly vortex mixed, and centrifuged at 2128 g for 30 minutes. Recoverable supernatant is transferred to an appropriate well of a microtitre plate and extracts are evaporated with oxygen free nitrogen at a gas temperature of about 40° C. Extracts are reconstituted in 200 μL of mobile phase and mixed well. The plate is sealed with silicone-based pre-pierced web seal and used for LC-MS/MS analysis.
LC-MS/MS analysis can be performed using the following chromatography conditions.

[2] = mouse, dose 35 mg/kg, Rudolph et al.; cited from earlier work
[3] = test system: BAC and ESCC cell lines versus the benign OE cell line (CPA); test: 96-well drug washout/outgrowth anti-proliferative assay (resazurin, day 6); assay type: cell-based; conditions: all timepoints
Experimental: Tumour sensitivity towards Plk1 inhibitors was studied in a panel of oesophageal (OE) cell lines. The cell lines used were: a benign Barrett's (CPA), two Barrett's adenocarcinoma (OE19 and OE33; Sigma Aldrich), and two oesophageal squamous cell carcinoma cell lines (OE21, ECACC; and KYSE-410, ECACC).
The anti-proliferative effect of Plk1 inhibitors was studied in a 96-well format drug washout/outgrowth assay. Cells were seeded at 1.5-2.5×10^3 cells per well in 96-well plates and left to incubate overnight at 37° C., 5% CO2, before addition of a range of concentrations of each of the different Plk1 inhibitors. Cells were incubated with the compounds for various periods of time, ranging from 3 to 24 hours; media containing the compounds was then removed from the cells and replaced with drug-free media until the end of the assay. The cell viability was evaluated on day 6 using a standard resazurin-based assay according to manufacturer's instructions (AlamarBlue, AbD Serotec, Oxford, UK). The IC50 values were determined using IDBS software.

**Q.** With `COc1cc(C(=O)N[C@H]2CC[C@H](N3CCN(C)CC3)CC2)ccc1Nc1ncc2c(n1)N(C1CCCC1)CC1(CC1)C(=O)N2C` [Compound A7, 4-(9′-cyclopentyl-5′-methyl-6′-oxo-5′,6′,8′,9′-tetrahydrospiro[cyclopropane-1,7′-pyrimido[4,5-b][1,4]diazepine]-2′-ylamino)-N-((trans)-4-(4-methylpiperazin-1-yl)cyclohexyl)-3-methoxybenzamide] as the compound, how does the Cl_obs [1] read?
**A.** 40.75 mL/min/kg

**Q.** And the HL_Lambda_z [1]?
**A.** 1.97 h

**Q.** And the Vz_obs [1]?
**A.** 6.937 L/kg

**Q.** What about the AUC [1] of the same compound?
**A.** 377 ng·h/mL

**Q.** What about the Cmax [1] of the same compound?
**A.** 453 ng/mL

**Q.** For `CC[C@@H]1C(=O)N(C)c2cnc(Nc3ccc(C(=O)N[C@H]4CC[C@H](N5CCN(CC6CC6)CC5)CC4)cc3OC)nc2N1C(C)C` [BI6727], which Cl_obs [2] is on record?
**A.** 10 mL/min/kg

**Q.** What about the Cmax [2] of the same compound?
**A.** 4390 ng/mL

**Q.** What about the HL_Lambda_z [2] of the same compound?
**A.** 46 h

**Q.** What about the Vz_obs [2] of the same compound?
**A.** 7.6 L/kg

**Q.** What does the source list for `COc1cc(C(=O)NC2CCN(C3CCOCC3)CC2)ccc1Nc1ncc2c(n1)N(C1CCCC1)CCC(=O)N2C` [Compound A13, 4-(9-cyclopentyl-5-methyl-6-oxo-6,7,8,9-tetrahydro-5H-pyrimido[4,5-b][1,4]diazepin-2-ylamino)-3-methoxy-N-[1-(tetrahydro-pyran-4-yl)-piperidin-4-yl]-benzamide]?
**A.** Cl_obs [1]: 99.8 mL/min/kg; HL_Lambda_z [1]: 0.78 h; Vz_obs [1]: 6.713 L/kg; AUC [1]: 164 ng·h/mL; Cmax [1]: 405 ng/mL

**Q.** For `COc1cc(C(=O)N[C@H]2CC[C@H](N3CCN(CC4CC4)CC3)CC2)ccc1Nc1ncc2c(n1)N(C1CCCC1)CC1(CC1)C(=O)N2C` [Compound A1, 4-(9′-cyclopentyl-5′-methyl-6′-oxo-5′,6′,8′,9′-tetrahydrospiro[cyclopropane-1,7′-pyrimido[4,5-b][1,4]diazepine]-2′-ylamino)-N-((trans)-4-(4-(cyclopropylmethyl)piperazin-1-yl)cyclohexyl)-3-methoxybenzamide], which Cl_obs [1] is on record?
**A.** 21.22 mL/min/kg

**Q.** And the HL_Lambda_z [1]?
**A.** 2.89 h

**Q.** What about the Vz_obs [1] of the same compound?
**A.** 5.304 L/kg

**Q.** What about the AUC [1] of the same compound?
**A.** 631 ng·h/mL

**Q.** What about the Cmax [1] of the same compound?
**A.** 478 ng/mL

**Q.** For `CC[C@@H]1C(=O)N(C)c2cnc(Nc3ccc(C(=O)NC4CCN(C)CC4)cc3OC)nc2N1C1CCCC1` [BI2536], which “differentiation between the cancerous and the benign cell lines” value [3] is on record?
**A.** little or no differentiation
